Activity calls are given as the source filed them. The calls are words filed in the database; no cut-off is given here.
Assays:
[1] = test system: U-937; test: Antiproliferative activity against human U-937 cells assessed as cell growth inhibition after 72 hrs by CCK8 assay; assay type: functional, cell-based; conditions: U-937, 72 h
[2] = test system: MGC-803; test: Antiproliferative activity against human MGC-803 cells assessed as cell growth inhibition after 72 hrs by SRB assay; assay type: functional, cell-based; conditions: MGC-803, 72 h
[3] = test system: HeLa; test: Antiproliferative activity against human HeLa cells assessed as cell growth inhibition after 72 hrs by SRB assay; assay type: functional, cell-based
[4] = test system: MGC-803; test: Induction of cell cycle arrest in human MGC-803 cells assessed as accumulation at G2/M phase at 2 nM incubated for 24 hrs by propidium iodide staining based flow cytometry (reference value: 28.59 %); assay type: functional
[5] = test system: MGC-803; test: Induction of cell cycle arrest in human MGC-803 cells assessed as accumulation at S phase at 2 nM incubated for 24 hrs by propidium iodide staining based flow cytometry (Rvb =31.51 %); assay type: functional
[6] = test system: MGC-803; test: Induction of cell cycle arrest in human MGC-803 cells assessed as accumulation at G1 phase at 2 nM incubated for 24 hrs by propidium iodide staining based flow cytometry (Rvb =39.64 %); assay type: functional
[7] = test system: MGC-803; test: Induction of apoptosis in human MGC-803 cells assessed as early apoptotic cells at 2 nM measured after 48 hrs by Annexin V-APC/PI double staining based flow cytometry assay (reference value: 2.42 %); assay type: functional, cell-based
[8] = test system: MGC-803; test: Induction of apoptosis in human MGC-803 cells assessed as late apoptotic cells at 2 nM measured after 48 hrs by Annexin V-APC/PI double staining based flow cytometry assay (reference value: 3.62 %); assay type: functional, cell-based
[9] = test system: MGC-803; test: Induction of apoptosis in human MGC-803 cells assessed as necrotic cells at 2 nM measured after 48 hrs by Annexin V-APC/PI double staining based flow cytometry assay (reference value: 0.44%); assay type: functional, cell-based
[10] = test system: MGC-803; test: Induction of apoptosis in human MGC-803 cells assessed as viable cells at 2 nM measured after 48 hrs by Annexin V-APC/PI double staining based flow cytometry assay (Rvb =93.5 %); assay type: functional, cell-based

`COc1ccc(/C=C\c2cc(OC)c(OC)c(OC)c2)cc1O` [COMBRETASTATIN A4] showed an IC50 [1] of 1 nM, an IC50 [2] of 2 nM and an IC50 [3] of 9 nM. For the same compound, the Activity [4] was “Dose-Dependent Effect”, the Activity ([4]; record 2) was 28.25% and the Activity [5] was 31.58%. The Activity [6] was 40.88%, the Activity [7] was “Active” and the Activity [8] was “Active”. The Activity [9] was “Active” and the Activity [10] was “Active”.

Reference: ChEMBL document CHEMBL4828751, “Discovery of novel tubulin/HDAC dual-targeting inhibitors with strong antitumor and antiangiogenic potency” (Eur J Med Chem, 2021)
